# Assay results taken from patent publication US20060100263A1, “Antipyretic compositions and methods” (priority 2004, published 2006).
# Structures can show the parent of a compound that is named as a salt. Marks after values point to notes of the source that are not given here.
# Assays:
# [1] = oral temperature of normal human subjects; assay type: in vivo; conditions: 600 mg PO single dose; for Oral Temperature at Indicated Times of Treatment: normal humans
# Experimental: Normal humans received either a placebo or 600 mg of bicifadine HCl (PO). Oral temperature readings were taken as part of an assessment of vital signs before and after administration of a single dose.
# Oral temperature readings were taken as part of an assessment of vital signs before and after administration of a single dose of bicifadine to normal humans. The placebo group consisted of 150 subjects, while the bicifadine HCl group consisted of 151 individuals.
# α2 adrenergic receptor = α2 adrenergic receptor binding
# [2] = yeast-induced pyresis model in rats; assay type: in vivo, rat
# Experimental: (§1) Groups of 6 rats were injected subcutaneously with saline solution or 40% brewers' yeast 18 hours prior to oral administration of bicifadine HCl or aspirin. The yeast was suspended in 0.85% saline and doses in a volume of 10 ml/kg. Rectal temperatures were recorded with a YSI 43TA telethermometer just prior to oral drug administration, and hourly for 3-4 hours. The post-treatment temperatures were compared to the initial temperatures of each group. Control animals were treated with vehicle and tested concurrently. In FIG. 1, the solid line represents the mean rectal temperature of normal rats (99.5° F.) and the standard error of that measure (0.1° F.) is indicated by the dashed lines.
# (§2) The results shown in FIG. 1 indicate that rats treated with brewers' yeast 18 hours prior to drug administration develop a febrile response, manifested as a mean rectal temperature of 101.1° F. In contrast, normal rats treated only with vehicle have a rectal temperature of 99.5° F., 1.6° F. lower than the yeast-treated rats.
# [3] = average body temperature of normal rats; assay type: in vivo, rat; conditions: for Mean Rectal Temperature at Indicated Hours Post-Treatment: 100 mg/kg PO
# Experimental: as §1, §2
# [4] = target: 5-HT2A serotonin receptor (Homo sapiens, UniProt P28223); experiment: radioligand binding to 5-HT2A serotonin receptor
# Sequence of 5-HT2A serotonin receptor (P28223 whole entry): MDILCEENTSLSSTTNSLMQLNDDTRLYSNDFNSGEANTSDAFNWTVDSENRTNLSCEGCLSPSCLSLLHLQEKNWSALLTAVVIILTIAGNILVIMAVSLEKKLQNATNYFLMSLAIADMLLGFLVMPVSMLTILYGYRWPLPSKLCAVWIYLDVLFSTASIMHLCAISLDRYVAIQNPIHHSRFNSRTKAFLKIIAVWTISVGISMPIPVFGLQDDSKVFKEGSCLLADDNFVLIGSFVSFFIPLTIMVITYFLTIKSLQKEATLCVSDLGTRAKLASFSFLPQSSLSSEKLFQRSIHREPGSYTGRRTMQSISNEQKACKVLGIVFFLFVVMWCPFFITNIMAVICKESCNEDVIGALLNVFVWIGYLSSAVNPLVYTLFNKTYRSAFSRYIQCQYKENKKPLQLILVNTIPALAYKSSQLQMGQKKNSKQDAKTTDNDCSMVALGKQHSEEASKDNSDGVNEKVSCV
# [5] = target: recombinant human cyclooxygenase1 (COX1) (Homo sapiens, UniProt P23219); experiment: COX1 PGE2 synthesis assay; conditions: 0.1, 1, or 10 μM
# Sequence of recombinant human cyclooxygenase1 (COX1) (P23219 24-599): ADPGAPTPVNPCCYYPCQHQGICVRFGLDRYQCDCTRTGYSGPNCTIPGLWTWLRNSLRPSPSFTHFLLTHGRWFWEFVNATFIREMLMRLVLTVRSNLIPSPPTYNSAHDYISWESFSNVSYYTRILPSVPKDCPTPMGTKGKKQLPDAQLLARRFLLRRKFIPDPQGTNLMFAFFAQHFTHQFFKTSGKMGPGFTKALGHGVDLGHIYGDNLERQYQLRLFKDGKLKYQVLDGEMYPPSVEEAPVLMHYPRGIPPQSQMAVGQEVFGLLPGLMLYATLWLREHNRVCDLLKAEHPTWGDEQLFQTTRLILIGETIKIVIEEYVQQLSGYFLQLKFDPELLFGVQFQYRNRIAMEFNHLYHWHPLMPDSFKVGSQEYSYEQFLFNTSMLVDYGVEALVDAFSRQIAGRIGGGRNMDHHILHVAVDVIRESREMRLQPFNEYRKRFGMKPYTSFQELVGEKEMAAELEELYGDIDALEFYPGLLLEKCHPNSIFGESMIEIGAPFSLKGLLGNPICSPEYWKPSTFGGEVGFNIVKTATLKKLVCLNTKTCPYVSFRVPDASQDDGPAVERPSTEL
# Experimental: The assay mixture was incubated (10 min at 25° C. for COX1, 5 min-at 22° C. for COX2), then stopped and the amount of reaction product (PGE2) formed was measured by an enzyme-linked immunosorbent assay.
# [6] = target: T1, recombinant human cyclooxygenase2 (COX2) (Homo sapiens, UniProt P35354); experiment: COX2 PGE2 synthesis assay; conditions: 0.1, 1, or 10 μM
# T1 sequence (P35354 18-604): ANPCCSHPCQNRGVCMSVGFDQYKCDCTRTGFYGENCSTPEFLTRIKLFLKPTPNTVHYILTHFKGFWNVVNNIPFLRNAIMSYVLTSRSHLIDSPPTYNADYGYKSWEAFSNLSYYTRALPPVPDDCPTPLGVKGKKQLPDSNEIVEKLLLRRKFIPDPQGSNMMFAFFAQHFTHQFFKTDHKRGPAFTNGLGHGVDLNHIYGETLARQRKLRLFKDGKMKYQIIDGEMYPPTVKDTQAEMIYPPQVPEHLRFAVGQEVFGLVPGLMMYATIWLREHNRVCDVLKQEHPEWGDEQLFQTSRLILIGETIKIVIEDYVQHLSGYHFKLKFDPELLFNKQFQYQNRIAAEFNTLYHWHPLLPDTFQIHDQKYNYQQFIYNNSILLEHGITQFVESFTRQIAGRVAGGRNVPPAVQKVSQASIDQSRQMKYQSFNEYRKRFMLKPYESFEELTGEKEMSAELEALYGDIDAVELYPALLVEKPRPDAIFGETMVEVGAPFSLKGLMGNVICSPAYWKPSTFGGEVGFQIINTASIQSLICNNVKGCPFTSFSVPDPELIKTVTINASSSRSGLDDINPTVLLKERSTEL
# Experimental: This was determined in assays using the rate limiting enzyme for prostaglandin synthesis, recombinant human cyclooxygenasel (COX1) and cyclooxygenase2 (COX2) expressed in Sf9 cells using a modified technique of Glaser et al (1995). These cells were incubated with arachidonic acid as the substrate (4, and 2 μM, respectively) and 0.1, 1, or 10 μM concentrations of bicifadine HCl in a suitable assay buffer. The assay mixture was incubated (10 min at 25° C. for COX1, 5 min-at 22° C. for COX2), then stopped and the amount of reaction product (PGE2) formed was measured by an enzyme-linked immunosorbent assay.
# [7] = blood pressure in human subjects; assay type: in vivo
# α1 adrenergic receptor = experiment: [3H]prazosin binding, rat cerebral cortex preparation
# Experimental: At the end of 60 min, the assay was terminated by vacuum filtration and the amount of radioactivity deposited on the filter measured by scintillation counting.
structure (smiles),measurement,setting,value
"Cc1ccc([C@]23CNC[C@H]2C3)cc1 (racemic) [Bicifadine HCl, (±)-1-(4-methylphenyl)-3-azabicyclo[3.1.0]hexane hydrochloride]",effect on normal human oral temperature (hypothermia),[1],did not consistently lower normal human oral temperature
same,Oral Temperature at Indicated Times of Treatment,[1]; 0.5 hr,98.1 ° F.
same,Oral Temperature at Indicated Times of Treatment,[1]; 1 hr,98.1 ° F.
same,Oral Temperature at Indicated Times of Treatment,[1]; 2 hr,98.1 ° F.
same,Oral Temperature at Indicated Times of Treatment,[1]; 3 hr,98.0 ° F.
same,Oral Temperature at Indicated Times of Treatment,[1]; 4 hr,98.1 ° F.
same,Oral Temperature at Indicated Times of Treatment,[1]; 5 hr,98.2 ° F.
same,Oral Temperature at Indicated Times of Treatment,[1]; 6 hr,98.2 ° F.
same,Oral Temperature at Indicated Times of Treatment,[1]; Follow-up,97.8 ° F.
same,Oral Temperature at Indicated Times of Treatment,[1]; Pre-Dose,98.1 ° F.
same,occupying binding sites on α2 adrenergic receptor,α2 adrenergic receptor,capable of occupying binding sites
same,rectal temperature of yeast-fevered rats,"[2]; 50 mg/kg PO, by the first hour after administration, vs pre-treatment temperature",significantly reduced rectal temperature
same,duration of antipyretic effect,[2]; 100 mg/kg PO,4 h
same,rectal temperature of yeast-fevered rats,"[2]; 100 mg/kg PO, normal rat temperature 99.5 °F",decrease rectal temperature to levels at or below normal
same,antipyretic potency compared with aspirin,[2]; aspirin 200 mg/kg PO,more potent antipyretic than aspirin
same,effect on rectal temperature of normal rats (hypothermia),[3],did not consistently lower the rectal temperature of normal rats
same,Mean Rectal Temperature at Indicated Hours Post-Treatment,[3]; 0 h,98.9 ° F.
same,Mean Rectal Temperature at Indicated Hours Post-Treatment,[3]; 1 h,97.9* ° F.
same,Mean Rectal Temperature at Indicated Hours Post-Treatment,[3]; 2 h,98.3 ° F.
same,Mean Rectal Temperature at Indicated Hours Post-Treatment,[3]; 3 h,98.2 ° F.
same,Mean Rectal Temperature at Indicated Hours Post-Treatment,[3]; 4 h,97.5 ° F.
same,inhibition of radioligand binding to 5-HT2A serotonin receptor,[4],significantly inhibited radioligand binding
same,inhibitory effect on PGE2 synthesis by COX1,[5],no significant inhibitory effect
same,inhibitory effect on PGE2 synthesis by COX2,[6],no significant inhibitory effect
same,alterations in blood pressure,[7],did not cause significant alterations in blood pressure
same,occupying binding sites on α1 adrenergic receptor,α1 adrenergic receptor,capable of occupying binding sites
same,Ki,"α1 adrenergic receptor; 0.25 nM [3H]prazosin, 60 min at 22° C.",1 µM
